# Measured values taken from patent US20230049917A1, “Pharmaceutical Composition of CASR Modulators and Methods and Uses Thereof” (Lupin Limited, priority 2019, published 2023).
# How the values were obtained:
# [1] = target: human Ether-a-go-go-related gene (hERG) (Homo sapiens, UniProt Q12809); experiment: hERG liability
# [2] = Phase 2 study: safety assessments (adverse events); assay type: in vivo, human; details: for patients who discontinued the study due to adverse drug reactions: Main Study
# Protocol: For safety assessments, safety was assessed through the summary of adverse events (AE), physical examinations and electrocardiogram (ECG) measurements, vital signs (e.g., blood pressure, pulse rate, respiratory rate and body temperature), body weight and laboratory data (e.g., haemtaology, biochemistry and urinalysis). All AEs (both serious and non-serious) were derived from spontaneous, unsolicited reports of patients, by observation and by routine open questions. The AE reporting extended from date of informed consent until completion of the final visit. Any ongoing AE at EOS visit was followed until the outcome was evident and resolved, clinically stabilized or a plausible explanation was found. Pre-existing diseases including deranged laboratory values (before participating in the study) were not considered AEs, unless the disease worsened during the study period. Signs and symptoms clearly associated with the disease under study (including symptoms of disease progression) were reported as AEs if they were newly emergent, or were determined as severe or worsening, or if deterioration of disease-related signs and symptoms to be caused directly by the study drug. Physical examination, vital signs (measured in a sitting position after resting for at least 3 minutes), ECG (recorded by qualified personnel after the patient had been resting in the supine position for at least 3 minutes) and clinical laboratory examinations were done as part of safety assessments. Abnormal laboratory values/ECGs/vital signs/physical examination were reported as AEs only if the abnormality was clinically relevant or significant or believed that the abnormality must be reported as an AE. Any dose (and associated symptoms) given to the patient that exceeded the dose prescribed to the patient, at a minimum, was recorded as a non-serious AE in the patient file and CRF/electronic CRF. Any case of overdose leading to an AE or SAE had to be reported to medical monitor according to reporting requirements. In case of an accidental overdose, the patient had to be monitored by for any adverse clinical events, as deemed necessary.
# [3] = patients not on dialysis, 5 mg BID (N = 16)
# [4] = patients not on dialysis, 10 mg QD (N = 37)
# [5] = patients not on dialysis, Total in Compound 3 Group (N = 71)
# [6] = patients on dialysis, 10 mg QD (N = 34)
# [7] = patients on dialysis, 20 mg BID (N = 19)
# [8] = patients on dialysis, 25 mg QD (N = 35)
# [9] = patients on dialysis, Total in Compound 3 Group (N = 88)
# Sequence of human Ether-a-go-go-related gene (hERG) (Q12809 whole entry): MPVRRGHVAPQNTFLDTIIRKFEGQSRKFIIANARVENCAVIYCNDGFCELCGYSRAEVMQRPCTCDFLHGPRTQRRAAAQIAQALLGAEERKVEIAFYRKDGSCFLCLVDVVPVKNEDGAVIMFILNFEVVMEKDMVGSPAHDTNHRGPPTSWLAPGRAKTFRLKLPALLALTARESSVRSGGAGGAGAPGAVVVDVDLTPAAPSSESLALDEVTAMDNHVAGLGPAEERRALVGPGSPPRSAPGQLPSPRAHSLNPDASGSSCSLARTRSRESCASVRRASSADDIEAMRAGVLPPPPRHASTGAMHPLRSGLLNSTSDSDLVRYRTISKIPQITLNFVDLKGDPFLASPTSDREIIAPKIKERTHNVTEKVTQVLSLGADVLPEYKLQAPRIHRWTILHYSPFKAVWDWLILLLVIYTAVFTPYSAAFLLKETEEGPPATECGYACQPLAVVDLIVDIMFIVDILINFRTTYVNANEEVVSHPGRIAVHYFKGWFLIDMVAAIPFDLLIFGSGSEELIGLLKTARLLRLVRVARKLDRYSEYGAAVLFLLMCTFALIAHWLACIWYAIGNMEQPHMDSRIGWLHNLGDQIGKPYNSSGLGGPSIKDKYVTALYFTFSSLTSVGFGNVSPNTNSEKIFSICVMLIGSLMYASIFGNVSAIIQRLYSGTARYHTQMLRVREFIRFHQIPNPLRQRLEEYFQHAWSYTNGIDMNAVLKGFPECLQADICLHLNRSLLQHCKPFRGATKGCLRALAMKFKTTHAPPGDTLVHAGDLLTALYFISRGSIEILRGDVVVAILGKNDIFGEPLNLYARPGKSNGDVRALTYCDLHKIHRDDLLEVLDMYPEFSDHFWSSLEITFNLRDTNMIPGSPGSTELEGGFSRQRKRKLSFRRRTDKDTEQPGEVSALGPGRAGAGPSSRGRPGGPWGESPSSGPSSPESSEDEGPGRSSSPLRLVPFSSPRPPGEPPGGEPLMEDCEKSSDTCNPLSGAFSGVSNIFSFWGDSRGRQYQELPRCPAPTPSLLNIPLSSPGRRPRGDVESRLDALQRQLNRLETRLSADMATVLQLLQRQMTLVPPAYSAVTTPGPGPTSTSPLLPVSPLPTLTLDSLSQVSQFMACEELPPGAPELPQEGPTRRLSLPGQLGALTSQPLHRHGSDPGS
smiles,measurement,setting,value
"Cc1ccc([C@@H]2C[C@H](CN[C@H](C)c3cccc4ccccc34)Oc3ccccc32)cc1C(=O)O.Cl [Compound 3, 2-methyl-5-((2R,4S)-2-((((R)-1-(naphthalen-1-yl)ethyl)amino)methyl)chroman-4-yl)benzoic acid hydrochloride]",hERG liabilities,[1],devoid
same,patients with hypocalcaemia considered by the investigator to be related to the study drug,"[2]; 1 patient each in 10 mg QD, 25 mg QD and 20 mg BID arms",3 patients
same,symptomatic hypocalcemic effect,"[2]; CKD patients, dose range 5 mg to 50 mg",no symptomatic hypocalcemic effect
same,patients who discontinued the study due to adverse drug reactions,[2]; not on dialysis group,None
same,patients who discontinued the study due to adverse drug reactions,[2]; on dialysis group,None
same,adverse events of hyperphosphatemia,"[2]; Phase 2 study, all patients",no adverse events of hyperphosphatemia
same,patients experiencing adverse events of hypocalcaemia or hyperphosphatemia,[2]; patients not on dialysis,none
same,Adverse event incidence: Diarrhea,[2]; [3],0%
same,Adverse event incidence: Nausea,[2]; [3],0%
same,Adverse event incidence: Vomiting,[2]; [3],0%
same,Adverse event incidence: Diarrhea,[2]; [4],2.7%
same,Adverse event incidence: Nausea,[2]; [4],0%
same,Adverse event incidence: Vomiting,[2]; [4],0%
same,Adverse event incidence: Diarrhea,[2]; [5],2.7%
same,Adverse event incidence: Nausea,[2]; [5],0%
same,Adverse event incidence: Vomiting,[2]; [5],0%
same,Adverse event incidence: Diarrhea,[2]; [6],0%
same,Adverse event incidence: Nausea,[2]; [6],0%
same,Adverse event incidence: Vomiting,[2]; [6],0%
same,Adverse event incidence: Diarrhea,[2]; [7],0%
same,Adverse event incidence: Nausea,[2]; [7],5.3%
same,Adverse event incidence: Vomiting,[2]; [7],0%
same,Adverse event incidence: Diarrhea,[2]; [8],0%
same,Adverse event incidence: Nausea,[2]; [8],0%
same,Adverse event incidence: Vomiting,[2]; [8],0%
same,Adverse event incidence: Diarrhea,[2]; [9],0%
same,Adverse event incidence: Nausea,[2]; [9],5.3%
same,Adverse event incidence: Vomiting,[2]; [9],0%
